According to ChEMBL document CHEMBL5154648, “Antitumor activity of novel POLA1-HDAC11 dual inhibitors” (Eur J Med Chem, 2022):
Calls of active or inactive are those of the source. No cut-off for these calls is given here.

Legend:
[1] = Toxicity in mouse xenografted with human H460-R9A cells assessed as body weight loss at 20 mg/kg, po qd administered 5 times a week for 3 to 4 weeks; type: organism-based; conditions: in vivo, time 3-4 weeks
[2] = Induction of cell cycle arrest in human H460-R9A cells assessed as accumulation of cells at G2/M phase at 2.2 uM after 72 hrs by flow cytometry (reference value: 15.4%); type: functional
[3] = test system: NCI-H460; experiment: Induction of cell cycle arrest in human NCI-H460 cells assessed as accumulation of cells at G0/1 phase at 0.12 uM after 72 hrs by flow cytometry (reference value: 46.8%); type: functional
[4] = Induction of cell cycle arrest in human H460-R9A cells assessed as accumulation of cells at sub-G1 phase at 2.2 uM after 72 hrs by flow cytometry (reference value: 1.5%); type: functional
[5] = test system: NCI-H460; experiment: Induction of cell cycle arrest in human NCI-H460 cells assessed as accumulation of cells at sub-G1 phase at 0.12 uM after 72 hrs by flow cytometry (reference value: 1.1%); type: functional
[6] = test system: H460-R9A; experiment: Antiproliferative activity against human H460-R9A cells at 0.75 to 12 uM after 72 hrs by MTT assay; type: functional, cell-based; conditions: dose 0.75-12 µM
[7] = test system: MM473; experiment: Induction of cell cycle arrest in human MM473-Luc cells assessed as accumulation of cells at G2/M phase at 1.2 uM after 72 hrs by flow cytometry (reference value: 11.7%); type: functional
[8] = target: T1, Histone deacetylase 11 (Homo sapiens) (UniProt Q96DB2); experiment: Inhibition of HDAC11 in human MM487 cells at 0.1 to 0.4 uM assessed as increase in p21 level and measured by Western blot analysis; type: cell-based; conditions: dose 0.1-0.4 µM
T1 sequence (whole entry): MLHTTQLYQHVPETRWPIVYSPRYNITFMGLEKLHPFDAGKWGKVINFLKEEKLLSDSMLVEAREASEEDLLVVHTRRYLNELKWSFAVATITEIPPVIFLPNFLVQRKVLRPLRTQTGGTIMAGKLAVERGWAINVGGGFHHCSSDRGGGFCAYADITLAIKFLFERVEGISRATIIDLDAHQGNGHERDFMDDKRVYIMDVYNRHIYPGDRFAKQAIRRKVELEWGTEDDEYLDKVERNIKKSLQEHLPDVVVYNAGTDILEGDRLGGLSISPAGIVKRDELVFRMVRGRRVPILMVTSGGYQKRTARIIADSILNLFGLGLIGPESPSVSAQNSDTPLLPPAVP

[9] = test system: MM487; experiment: Induction of DNA damage in human MM487 cells at 0.1 to 0.4 uM assessed as increase in p-H2AX levels and measured by Western blot analysis; type: functional, cell-based; conditions: dose 0.1-0.4 µM
[10] = target: T1, Histone deacetylase 11 (Homo sapiens); experiment: Inhibition of HDAC11 in human MM473 cells at 0.1 to 0.4 uM assessed as increase in p21 level and measured by Western blot analysis; type: cell-based; conditions: dose 0.1-0.4 µM
[11] = test system: MM473; experiment: Induction of DNA damage in human MM473 cells at 0.1 to 0.4 uM assessed as increase in p-H2AX levels and measured by Western blot analysis; type: functional, cell-based; conditions: dose 0.1-0.4 µM
[12] = test system: A2780; experiment: Induction of cell cycle arrest in human A2780 cells assessed as accumulation of cells at sub-G1 phase at 0.6 uM after 72 hrs by flow cytometry (reference value: 1.6%); type: functional
[13] = test system: NCI-H460; experiment: Down-regulation of POLA1 protein expression in human NCI-H460 cells at 0.25 uM measured by Western blot analysis; type: functional, cell-based
[14] = test system: MM473; experiment: Induction of cell cycle arrest in human MM473-Luc cells assessed as accumulation of cells at S phase at 1.2 uM after 72 hrs by flow cytometry (reference value: 13.7%); type: functional
[15] = test system: NCI-H460; experiment: Down-regulation of POLA1 mRNA expression in human NCI-H460 cells at 0.25 uM measured by qRT-PCR assay; type: functional, cell-based
[16] = Antitumor activity against human H460-R9A cells xenografted in mouse assessed as tumor growth inhibition at 50 mg/kg, po qd administered 5 times a week for 3 to 4 weeks in combination with cisplatin at 4 mg/kg, iv administered every 7 days for 4 weeks; type: functional; conditions: time 3-4 weeks, read-out: TGI
[17] = test system: A2780; experiment: Induction of cell cycle arrest in human A2780 cells assessed as accumulation of cells at G2/M phase at 0.6 uM after 72 hrs by flow cytometry (reference value: 15%); type: functional
[18] = Induction of cell cycle arrest in human H460-R9A cells assessed as accumulation of cells at G2/M phase at 2.8 uM after 72 hrs by flow cytometry (reference value: 15.4%); type: functional
[19] = Induction of cell cycle arrest in human H460-R9A cells assessed as accumulation of cells at G0/1 phase at 2.8 uM after 72 hrs by flow cytometry (reference value: 50.1%); type: functional
[20] = test system: NCI-H460; experiment: Induction of cell cycle arrest in human NCI-H460 cells assessed as accumulation of cells at sub-G1 phase at 0.26 uM after 72 hrs by flow cytometry (reference value: 1.1%); type: functional
[21] = test system: A2780; experiment: Induction of cell cycle arrest in human A2780 cells assessed as accumulation of cells at G2/M phase at 0.95 uM after 72 hrs by flow cytometry (reference value: 15%); type: functional
[22] = test system: MM473; experiment: Induction of cell cycle arrest in human MM473-Luc cells assessed as accumulation of cells at G2/M phase at 1.4 uM after 72 hrs by flow cytometry (reference value: 11.7%); type: functional
[23] = test system: NCI-H460; experiment: Induction of cell cycle arrest in human NCI-H460 cells assessed as accumulation of cells at S phase at 0.26 uM after 72 hrs by flow cytometry (reference value: 32.1%); type: functional
[24] = Antitumor activity against human MM487 cells xenografted in mouse assessed as tumor growth inhibition at 50 mg/kg, po bid administered 5 times a week for 3 weeks; type: functional; conditions: MM487, 504 h, read-out: TGI
[25] = target: T1, Histone deacetylase 11 (Homo sapiens); experiment: Inhibition of HDAC11 in human A2780 cells at 0.1 to 0.4 uM assessed as increase in p21 level and measured by Western blot analysis; type: cell-based; conditions: dose 0.1-0.4 µM
[26] = test system: A2780; experiment: Induction of cell cycle arrest in human A2780 cells assessed as accumulation of cells at sub-G1 phase at 0.95 uM after 72 hrs by flow cytometry (reference value: 1.6%); type: functional
[27] = test system: NCI-H460; experiment: Down-regulation of POLA1 protein expression in human NCI-H460 cells at 0.26 uM measured by Western blot analysis; type: functional, cell-based
[28] = test system: MM473; experiment: Induction of cell cycle arrest in human MM473-Luc cells assessed as accumulation of cells at sub-G1 phase at 1.4 uM after 72 hrs by flow cytometry (reference value: 1.3%); type: functional
[29] = target: T1, Histone deacetylase 11 (Homo sapiens); experiment: Inhibition of HDAC11 in human A2780 cells at 0.1 to 0.4 uM assessed as induction of p53 acetylation and measured by Western blot analysis; type: cell-based; conditions: dose 0.1-0.4 µM
[30] = test system: NCI-H460; experiment: Down-regulation of POLA1 mRNA expression in human NCI-H460 cells at 0.26 uM measured by qRT-PCR assay; type: functional, cell-based
[31] = test system: A2780; experiment: Induction of cell cycle arrest in human A2780 cells assessed as accumulation of cells at G0/1 phase at 0.95 uM after 72 hrs by flow cytometry (reference value: 48.7%); type: functional

Which results are given for `O=C(O)C=Cc1ccc(-c2ccc(O)c(C34CC5CC(CC(C5)C3)C4)c2)cc1`?
Activity [1]: 0%; Activity [2]: 13.8%; Activity [3]: 13.8%; Activity [4]: 26.7%; Activity [5]: 12.4%; Activity [6]: Active

With `O=C(O)C=Cc1ccc(-c2ccc(OCC(=O)NO)c(C34CC5CC(CC(C5)C3)C4)c2)cc1` as the molecule, how does the Activity [7] read?
Its Activity is 14.1%.

And the inhibition [8]?
The inhibition was “Active”.

What about the Activity [9] of the same molecule?
Its Activity is “Active”.

What about the inhibition [10] of the same molecule?
The inhibition was “Active”.

And the Activity [11]?
Its Activity is “Active”.

What about the Activity [12] of the same molecule?
Its Activity is 33.3%.

And the Activity [13]?
The Activity was “Active”.

What about the Activity [14] of the same molecule?
The Activity was 62.9%.

What about the Activity [15] of the same molecule?
The Activity was “Active”.

What about the inhibition in vivo at 50 mg/kg [16] of the same molecule?
Its inhibition in vivo at 50 mg/kg is 78%.

And the Activity [17]?
The Activity was 6.5%.

And the Activity [18]?
Its Activity is 12.9%.

And the Activity [19]?
Its Activity is 49.7%.

Which results are given for `CC(Oc1ccc(-c2ccc(C=CC(=O)O)cc2)cc1C12CC3CC(CC(C3)C1)C2)C(=O)NO` (stereo unspecified)?
Activity [20]: 13.2%; Activity [21]: 3%; Activity [22]: 16.1%; Activity [23]: 81.4%; inhibition in vivo at 50 mg/kg [24]: 72%; inhibition [25]: Active; Activity [26]: 23%; Activity [27]: Active; Activity [28]: 10.2%; inhibition [29]: Active; Activity [30]: Active; Activity [31]: 10.8%
